The source of these data is patent US8487108B2, “Piperidinyl carbamate intermediates for the synthesis of aspartic protease inhibitors” (Vitae Pharmaceuticals, Inc., priority 2005, dated 2013).

The target in this assay is T1, trypsin-activated recombinant human renin (Homo sapiens, UniProt P00797).
T1 sequence (P00797 67-406): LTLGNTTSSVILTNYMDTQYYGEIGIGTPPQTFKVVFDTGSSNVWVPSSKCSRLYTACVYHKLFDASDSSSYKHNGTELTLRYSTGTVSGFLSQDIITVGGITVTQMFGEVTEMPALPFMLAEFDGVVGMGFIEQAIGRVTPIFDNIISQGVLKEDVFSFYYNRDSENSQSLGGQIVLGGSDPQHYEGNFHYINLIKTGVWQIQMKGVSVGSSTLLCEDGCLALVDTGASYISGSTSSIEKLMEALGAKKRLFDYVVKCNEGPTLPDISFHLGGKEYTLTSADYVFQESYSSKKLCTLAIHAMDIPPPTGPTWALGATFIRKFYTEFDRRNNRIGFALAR
Briefly: Renin fluorescence assay (internally quenched peptide substrate). The assay is classed as biochemical. The following applies: compounds I*. In a few lines: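 Cleavage of an angiotensinogen-derived DABCYL-quenched peptide by trypsin-activated recombinant human renin (0.2-2 nM final) in 50 mM BES, 150 mM NaCl, 0.25 mg/mL BSA, pH 7.0; compounds 10 μM to 1 nM final. Fluorescence (ex 340/em 495 nm) followed 60-360 min at rt; linear-slope rates give percent inhibition versus uninhibited control.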
As usually defined, the IC50 is the concentration needed to halve the response being measured. With `CNC[C@H](CN1CCCCC1=O)NC(=O)N1CCC[C@@H]([C@@H](OCCNC(=O)OC)c2cccc(Cl)c2)C1` [I*-93a, methyl 2-((R)-(3-chlorophenyl)((R)-1-((R)-1-(methylamino)-3-(2-oxopiperidin-1-yl)propan-2-yl-carbamoyl)piperidin-3-yl)methoxy)ethylcarbamate], the half-inhibitory concentration (IC50) is over 0.05 µM.

On to `CNC[C@@H](CC1(C)CCCCC1)NC(=O)N1CCC[C@@H]([C@@H](OCCNC(=O)OC)c2cc(F)cc(F)c2)C1` [I*-94a, methyl 2-((R)-(3,5-difluorophenyl)((R)-1-((R)-1-(methylamino)-3-(1-methylcyclohexyl)propan-2-ylcarbamoyl)piperidin-3-yl)methoxy)ethylcarbamate], for which the IC50 was over 0.05 µM. As for `CNC[C@H](CC1(C)CCCCC1)NC(=O)N1CCC[C@@H]([C@@H](OCCNC(=O)OC)c2cc(F)cc(F)c2)C1` [I*-95a, methyl 2-((R)-(3,5-difluorophenyl)((R)-1-((S)-1-(methylamino)-3-(1-methylcyclohexyl)propan-2-ylcarbamoyl)piperidin-3-yl)methoxy)ethylcarbamate], the IC50 is under 0.01 µM. In the case of `CNC[C@H](CC1CCCCC1)NC(=O)N1CCC[C@@H]([C@@H](OCCNC(=O)OC)c2c(C)ccc(F)c2F)C1` [I*-96a, methyl 2-((R)-((R)-1-((S)-1-cyclohexyl-3-(methylamino)propan-2-ylcarbamoyl)piperidin-3-yl)(2,3-difluoro-6-methylphenyl)methoxy)ethylcarbamate] it was under 0.01 µM.

Consider `CNC[C@H](CC1CCCCC1)NC(=O)N1CCC[C@H]([C@@H](OCCNC(=O)OC)c2c(C)ccc(F)c2F)C1` [I*-97a, methyl 2-((R)-((S)-1-((S)-1-cyclohexyl-3-(methylamino)propan-2-ylcarbamoyl)piperidin-3-yl)(2,3-difluoro-6-methylphenyl)methoxy)ethylcarbamate], for which the IC50 is under 0.02 µM. Consider `CNC[C@H](C[C@H]1CCCOCC1)NC(=O)N1CCC[C@@H]([C@@H](OCCNC(=O)OC)c2cccc(Cl)c2)C1` [I*-98a, methyl 2-((R)-(3-chlorophenyl)((R)-1-((S)-1-(methylamino)-3-((R)-oxepan-4-yl)propan-2-yl-carbamoyl)piperidin-3-yl)methoxy)ethylcarbamate], for which the IC50 is under 0.01 µM. For `CNC[C@H](C[C@@H]1CCCOCC1)NC(=O)N1CCC[C@@H]([C@@H](OCCNC(=O)OC)c2cccc(Cl)c2)C1` [I*-99a, methyl 2-((R)-(3-chlorophenyl)((R)-1-((S)-1-(methylamino)-3-((S)-oxepan-4-yl)propan-2-ylcarbamoyl)piperidin-3-yl)methoxy)ethylcarbamate], the IC50 is under 0.01 µM. In the case of `CNC[C@@H](NC(=O)N1CCC[C@@H]([C@@H](OCCNC(=O)OC)c2cccc(Cl)c2)C1)[C@@H](O)C1CCCCC1` [I*-100a, methyl 2-((R)-(3-chlorophenyl)((R)-1-((1S,2R)-1-cyclohexyl-1-hydroxy-3-(methylamino)propan-2-ylcarbamoyl)piperidin-3-yl)methoxy)ethylcarbamate] it was under 0.001 µM. In the case of `CNC[C@H](CC1CCOCC1)NC(=O)N1CCC[C@@H]([C@@H](OCCNC(=O)OC)c2cc(Cl)ccc2C)C1` [I*-101a, methyl 2-((R)-(5-chloro-2-methylphenyl)((R)-1-((S)-1-(methylamino)-3-(tetrahydro-2H-pyran-4-yl)propan-2-ylcarbamoyl)piperidin-3-yl)methoxy)ethylcarbamate] it was under 0.01 µM; in that of `CNC[C@H](CC1CCC(O)CC1)NC(=O)N1CCC[C@@H]([C@@H](OCCNC(=O)OC)c2cccc(Cl)c2)C1` (stereo partly drawn) [I*-102a, methyl 2-((R)-(3-chlorophenyl)((R)-1-((S)-1-(4-hydroxycyclohexyl)-3-(methylamino)propan-2-ylcarbamoyl)piperidin-3-yl)methoxy)ethylcarbamate], under 0.05 µM; in that of `CNC[C@H](CC1CCOCC1)NC(=O)N1CCC[C@@H]([C@@](C)(OCCNC(=O)OC)c2cccc(Cl)c2)C1` [I*-103a, methyl 2-((R)-1-(3-chlorophenyl)-1-((R)-1-((S)-1-(methylamino)-3-(tetrahydro-2H-pyran-4-yl)propan-2-ylcarbamoyl)piperidin-3-yl)ethoxy)ethylcarbamate], under 0.02 µM. With `CNC[C@H](C[C@H]1CCCCOC1)NC(=O)N1CCC[C@@H]([C@@H](OCCNC(=O)OC)c2cccc(Cl)c2)C1` [I*-106a, methyl 2-((R)-(3-chlorophenyl)((R)-1-((S)-1-(methylamino)-3-((R)-oxepan-3-yl)propan-2-ylcarbamoyl)piperidin-3-yl)methoxy)ethylcarbamate], the half-inhibitory concentration (IC50) is under 0.001 µM. In the case of `CNC[C@@H](NC(=O)N1CCC[C@@H]([C@@H](OCCNC(=O)OC)c2cc(Cl)ccc2C)C1)[C@@H](O)C1CCCC1` [I*-107a, methyl 2-((R)-(5-chloro-2-methylphenyl)((R)-1-((1S,2R)-1-cyclopentyl-1-hydroxy-3-(methylamino)propan-2-ylcarbamoyl)piperidin-3-yl)methoxy)ethylcarbamate] it was under 0.01 µM. In the case of `CNC[C@H](CC1CCOCC1)NC(=O)N1CCCC[C@@H]([C@@H](OCCNC(=O)OC)c2cccc(Cl)c2)C1` [I*-108a, methyl 2-((R)-(3-chlorophenyl)((R)-1-((S)-1-(methylamino)-3-(tetrahydro-2H-pyran-4-yl)propan-2-ylcarbamoyl)azepan-3-yl)methoxy)ethylcarbamate] it was under 0.05 µM; in that of `COC(=O)NCCO[C@@H](c1cc(Cl)ccc1C)[C@@H]1CCCN(C(=O)NC[C@@H](N)C[C@H]2CCCCOC2)C1` [I*-109a, methyl 2-((R)-((R)-1-((S)-2-amino-3-((R)-oxepan-3-yl)propylcarbamoyl)piperidin-3-yl)(5-chloro-2-methylphenyl)methoxy)ethylcarbamate], under 0.001 µM.

Consider `CN[C@H](CNC(=O)N1CCC[C@@H]([C@@H](OCCNC(=O)OC)c2cccc(Cl)c2)C1)C[C@H]1CCCCOC1` [I*-110a, methyl 2-((R)-(3-chlorophenyl)((R)-1-((S)-2-(methylamino)-3-((R)-oxepan-3-yl)propylcarbamoyl)piperidin-3-yl)methoxy)ethylcarbamate], for which the IC50 is under 0.001 µM. Then `CNC[C@H](CC1CCCCC1)NC(=S)N1CCC[C@@H]([C@@H](OCCNC(=O)OC)c2cccc(Cl)c2)C1` [I*-111a, methyl 2-((R)-(3-chlorophenyl)((R)-1-((S)-1-cyclohexyl-3-(methylamino)propan-2-ylcarbamothioyl)piperidin-3-yl)methoxy)ethylcarbamate], with under 0.001 µM; and `CNC[C@@H](NC(=O)N1CCC[C@@H]([C@@H](OCCNC(=O)OC)c2cc(F)cc(F)c2)C1)[C@@H](O)C1CCCCC1` [I*-112a, methyl 2-((R)-((R)-1-((1S,2R)-1-cyclohexyl-1-hydroxy-3-(methylamino)propan-2-ylcarbamoyl)piperidin-3-yl)(3,5-difluorophenyl)methoxy)ethylcarbamate], with under 0.001 µM.

Consider `CNC[C@H](C[C@H]1CCCCOC1)NC(=O)N1CCC[C@@H]([C@@H](OCCNC(=O)OC)c2cc(F)cc(F)c2)C1` [I*-113a, methyl 2-((R)-(3,5-difluorophenyl)((R)-1-((S)-1-(methylamino)-3-((R)-oxepan-3-yl)propan-2-ylcarbamoyl)piperidin-3-yl)methoxy)ethylcarbamate], for which the IC50 is under 0.01 µM.
